The results in this text go back to patent EP4678638A1, “NEW E3 UBIQUITIN LIGASE LIGAND, PROTEIN DEGRADATION AGENT AND USE THEREOF” (priority 2023, dated 2024).

The structures appear in SMILES notation.

One test concerns 22RV1. Briefly: CCK-8 proliferation, 22RV1. As to conditions: Homo sapiens, 96 hours, read-out: Inhibitory activity (IC50) on tumor cell proliferation, 22RV1. The format is cell-based. The method, then: (§1) The tumor cells used herein were cultured in a cell culture medium listed in table A1 at 37°C in an incubator with 5% CO2. Prior to experimentation, all cell lines used were correctly identified by STR profiling, and tested negative for mycoplasma contamination using a mycoplasma detection kit through routine screenings. Table A1. Tumor cells and cell culture medium used in the present disclosure
(§2) IC50 values of the compounds of the present disclosure (including the compounds in Table 1, and compounds of examples) were measured using the Meilun Cell Counting Kit-8 kit from Dalian Meilun Biotech Co., Ltd. Assay details are as follows: tumor cells were seeded in a 96-well plate at a density listed in Table A2. After 24h, 100 µL of the inoculated cells were treated with 0.5µL of the compounds of the present disclosure (including the compounds in Tables 1 and 2, and compounds of examples) at 10 different successively decreasing concentrations (starting at the highest concentration of 10µM; 5-fold serial dilutions). After the cells were treated with the compounds of the present disclosure for a period of time, the cell viability detection reagent was added to the culture medium for cell viability assessment according to the instructions provided with the CCK-8 kit. […] The growth inhibition of the compounds of the present disclosure on cells was plotted by Prism Graphpad software, and the IC50 values of the compounds of the present disclosure were calculated therefrom. […] Seeding protocol and treatment time for tumor cells

A further test concerns CCRF-CEM. The experiment in a line: CCK-8 proliferation, CCRF-CEM. The format is cell-based, Human. As to conditions: Homo sapiens, CCRF-CEM; CCK-8; 96 hours; read-out: Inhibitory activity (IC50) on tumor cell proliferation, CCRF-CEM. Summed up: (§3)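 CCK-8 viability readout; IC50 from growth-inhibition curve fitting. Cells plated, dosed 24h later with a 10-point series, top 10µM, 5-fold steps. Culture at 37°C, 5% CO2.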

A further test concerns MCF7. Briefly: CCK-8 proliferation, MCF7 (MCF-7). The settings on record: Homo sapiens, MCF7; CCK-8; read-out: Inhibitory activity (IC50) on tumor cell proliferation, MCF7. The format is cell-based. Summed up:
as §3

For another test, the system named is Kasumi-1. The experiment in a line: CCK-8 proliferation, Kasumi-1. The format is cell-based, Human. As to conditions: Homo sapiens, Kasumi 1, 72 hours, read-out: Inhibitory activity (IC50) on tumor cell proliferation, Kasumi-1. The method, then:
as §1, §2

In another test the target is T1, CDK6 (Homo sapiens, UniProt Q00534).
T1 construct: evaluate the effects of the compounds of the present disclosure on the expression of target proteins in cells; endogenous in cells; host or cells: MDA-MB-231
T1 sequence (Q00534 whole entry): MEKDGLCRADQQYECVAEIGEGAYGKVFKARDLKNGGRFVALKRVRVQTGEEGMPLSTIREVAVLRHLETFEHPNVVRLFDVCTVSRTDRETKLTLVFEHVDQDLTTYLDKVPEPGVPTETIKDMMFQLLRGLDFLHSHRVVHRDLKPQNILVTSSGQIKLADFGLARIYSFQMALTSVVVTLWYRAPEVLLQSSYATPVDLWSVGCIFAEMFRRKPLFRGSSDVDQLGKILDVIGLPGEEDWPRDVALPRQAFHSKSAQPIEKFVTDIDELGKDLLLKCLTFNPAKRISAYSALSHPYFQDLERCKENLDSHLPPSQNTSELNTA
The experiment in a line: Western blot degradation of CDK6 (MDA-MB-231 Cell). It is filed as cell-based. As to conditions: Table D3. Summed up: (§4)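 Degradation is assessed by immunoblotting lysates of treated cells. Target bands are quantified by grayscale and normalised to an internal control, so degradation rate equals 100% minus % remaining.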
(A western blot detects proteins with antibodies after separation by electrophoresis.)

The next test has as its system MV-4-11. The experiment in a line: CCK-8 proliferation, MV-4-11. It is filed as cell-based, Human. As to conditions: Homo sapiens, MV4-11; CCK-8; 72 or 96 hours; read-out: Inhibitory activity (IC50) on tumor cell proliferation, MV-4-11. Summed up:
as §3

Another test has as its target T2, CDK4 (Homo sapiens, UniProt P11802).
T2 construct: evaluate the effects of the compounds of the present disclosure on the expression of target proteins in cells; endogenous in cells; host or cells: MDA-MB-231
The experiment in a line: Western blot degradation of CDK4 (MDA-MB-231 Cell). It is filed as cell-based. As to conditions: Table D3. Summed up: as §4

In another test the test system is H1975. Briefly: CCK-8 proliferation, NCI-H1975 (H1975). The format is cell-based, Human. The settings on record: Homo sapiens, NCI-H1975; CCK-8; 96 hours; read-out: Inhibitory activity (IC50) on tumor cell proliferation, H1975. Summed up:
as §3

A further test has as its system SR. Briefly: CCK-8 proliferation, SR. The format is cell-based, Human. The settings on record: Homo sapiens, SR; CCK-8; 72 hours; read-out: Inhibitory activity (IC50) on tumor cell proliferation, SR. An outline of the steps:
as §3

A further test has as its system MM.1S. Briefly: CCK-8 proliferation, MM.1S. It is filed as cell-based. The settings on record: Homo sapiens, MM1.S; CCK-8; 72 hours; read-out: Inhibitory activity (IC50) on tumor cell proliferation, MM1S. An outline of the steps:
as §3

T2 sequence (P11802 whole entry): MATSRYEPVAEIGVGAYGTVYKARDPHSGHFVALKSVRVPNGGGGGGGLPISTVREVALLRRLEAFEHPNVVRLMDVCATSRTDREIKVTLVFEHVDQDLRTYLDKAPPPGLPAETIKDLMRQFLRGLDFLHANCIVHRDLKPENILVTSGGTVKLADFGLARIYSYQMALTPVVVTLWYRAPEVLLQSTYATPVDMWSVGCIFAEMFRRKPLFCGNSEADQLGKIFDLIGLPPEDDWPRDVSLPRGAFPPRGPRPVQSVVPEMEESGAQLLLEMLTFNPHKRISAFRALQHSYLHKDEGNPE

In the case of `CC(=O)c1c(C)c2cnc(Nc3ccc(N4CCC(N5CCN(Cc6ccc(C7CCC(=O)NC7=O)cc6)CC5)CC4)cn3)nc2n(C2CCCC2)c1=O` (centres unmarked) [GT-06659, 3-(4-((4-(1-(6-((6-acetyl-8-cyclopentyl-5-methyl-7-oxo-7,8-dihydropyrido[2,3-d]pyrimidin-2-yl)amino)pyridin-3-yl)piperidin-4-yl)piperazin-1-yl)methyl)phenyl)piperidine-2,6-dione], the IC50 was 10 to 50 nM in the test with 22RV1; 100 to 500 nM with CCRF-CEM; 100 to 500 nM in the test on MCF7; 100 to 500 nM in the test on Kasumi-1; 100 to 500 nM in the test with MV-4-11. The “Degradation of substrate protein CDK6 (substrate protein remaining %)” value at CDK6 is recorded as “A (A is defined as 0% ≤ substrate protein remaining % ≤ 80%)”. For the same molecule, the “Degradation of substrate protein CDK4 (substrate protein remaining %)” value on CDK4 is listed as “A (A is defined as 0% ≤ substrate protein remaining % ≤ 80%)”.
With `Cc1nc2c(F)cc(-c3nc(Nc4ccc(CN5CCN(Cc6ccc(C7CCC(=O)NC7=O)cc6)CC5)cn4)ncc3F)cc2n1C(C)C` (centres unmarked) [GT-06664, 3-(4-((4-((6-((5-fluoro-4-(4-fluoro-1-isopropyl-2-methyl-1H-benzo[d]imidazol-6-yl)pyrimidin-2-yl)amino)pyridin-3-yl)methyl)piperazin-1-yl)methyl)phenyl)piperidine-2,6-dione], the IC50 in the test with 22RV1 was 50 to 100 nM; in the test on CCRF-CEM, 500 to 1000 nM; with Kasumi-1, 100 to 500 nM; with H1975 it was 500 to 1000 nM; in the test with SR it was 100 to 500 nM; in the test on MV-4-11, 10 to 50 nM. Besides, the “Degradation of substrate protein CDK6 (substrate protein remaining %)” value on CDK6 is given as “B (B is defined as substrate protein remaining % > 80%)”. Further, the “Degradation of substrate protein CDK4 (substrate protein remaining %)” value at CDK4 is “A (A is defined as 0% ≤ substrate protein remaining % ≤ 80%)”.
`Cc1nc2c(F)cc(-c3nc(Nc4ccc(CN5CCN(Cc6ccc(N7CCC(=O)NC7=O)cc6)CC5)cn4)ncc3F)cc2n1C(C)C` [GT-06665, 1-(4-((4-((6-((5-fluoro-4-(4-fluoro-1-isopropyl-2-methyl-1H-benzo[d]imidazol-6-yl)pyrimidin-2-yl)amino)pyridin-3-yl)methyl)piperazin-1-yl)methyl)phenyl)dihydropyrimidine-2,4(1H,3H)-dione]: the IC50 lay in the range of 10 to 50 nM in the test on 22RV1; 500 to 1000 nM in the test with CCRF-CEM; 100 to 500 nM in the test on MCF7; 100 to 500 nM with Kasumi-1; 100 to 500 nM in the test on H1975; 100 to 500 nM with SR. For the same molecule, the IC50 in the test with MV-4-11 is 10 to 50 nM. Moreover, the “Degradation of substrate protein CDK6 (substrate protein remaining %)” value at CDK6 was “A (A is defined as 0% ≤ substrate protein remaining % ≤ 80%)”. Besides, the “Degradation of substrate protein CDK4 (substrate protein remaining %)” value on CDK4 is on record as “A (A is defined as 0% ≤ substrate protein remaining % ≤ 80%)”.
Take `Cc1nc2c(F)cc(-c3nc(Nc4ccc(CN5CCN(Cc6cccc(N7CCC(=O)NC7=O)c6)CC5)cn4)ncc3F)cc2n1C(C)C` [GT-06666, 1-(3-((4-((6-((5-fluoro-4-(4-fluoro-1-isopropyl-2-methyl-1H-benzo[d]imidazol-6-yl)pyrimidin-2-yl)amino)pyridin-3-yl)methyl)piperazin-1-yl)methyl)phenyl)dihydropyrimidine-2,4(1H,3H)-dione]: the IC50 fell in the range of 50 to 100 nM in the test with 22RV1; 100 to 500 nM in the test with CCRF-CEM; 500 to 1000 nM with MM.1S; 100 to 500 nM in the test on MCF7; 100 to 500 nM with Kasumi-1; 500 to 1000 nM in the test on H1975. For the same molecule, the IC50 lay in the range of 100 to 500 nM in the test with SR and 10 to 50 nM with MV-4-11. Moreover, the “Degradation of substrate protein CDK6 (substrate protein remaining %)” value on CDK6 was “A (A is defined as 0% ≤ substrate protein remaining % ≤ 80%)”. Moreover, on CDK4, the “Degradation of substrate protein CDK4 (substrate protein remaining %)” value is recorded as “A (A is defined as 0% ≤ substrate protein remaining % ≤ 80%)”.
With `Cc1nc2c(F)cc(-c3nc(Nc4ccc(CN5CCN(Cc6ccc(N7CCC(=O)NC7=O)cn6)CC5)cn4)ncc3F)cc2n1C(C)C` [GT-06667, 1-(6-((4-((6-((5-fluoro-4-(4-fluoro-1-isopropyl-2-methyl-1H-benzo[d]imidazol-6-yl)pyrimidin-2-yl)amino)pyridin-3-yl)methyl)piperazin-1-yl)methyl)pyridin-3-yl)dihydropyrimidine-2,4(1H,3H)-dione], the IC50 with 22RV1 was in the range of 50 to 100 nM; with CCRF-CEM, 100 to 500 nM; in the test on MCF7, 100 to 500 nM; with Kasumi-1 it was 100 to 500 nM; in the test with SR it was 100 to 500 nM; in the test on MV-4-11 it was 10 to 50 nM. Also, the “Degradation of substrate protein CDK6 (substrate protein remaining %)” value on CDK6 is on record as “A (A is defined as 0% ≤ substrate protein remaining % ≤ 80%)”. Moreover, on CDK4, the “Degradation of substrate protein CDK4 (substrate protein remaining %)” value is “A (A is defined as 0% ≤ substrate protein remaining % ≤ 80%)”.
`Cc1nc2c(F)cc(-c3nc(Nc4ccc(N5CCC(N(C)Cc6ccc(C7CCC(=O)NC7=O)cc6)CC5)cn4)ncc3F)cc2n1C(C)C` (centres unmarked) [GT-06735, 3-(4-(((1-(6-((5-fluoro-4-(4-fluoro-1-isopropyl-2-methyl-1H-benzo[d]imidazol-6-yl)pyrimidin-2-yl)amino)pyridin-3-yl)piperidin-4-yl)(methyl)amino)methyl)phenyl)piperidine-2,6-dione]: the IC50 is 10 to 50 nM with 22RV1; 100 to 500 nM with CCRF-CEM; 100 to 500 nM in the test on MM.1S; 100 to 500 nM in the test on Kasumi-1; 100 to 500 nM in the test on H1975; 50 to 100 nM in the test with SR. The IC50 with MV-4-11 is 10 to 50 nM. Besides, at CDK6, the “Degradation of substrate protein CDK6 (substrate protein remaining %)” value was “A (A is defined as 0% ≤ substrate protein remaining % ≤ 80%)”. Moreover, the “Degradation of substrate protein CDK4 (substrate protein remaining %)” value on CDK4 is reported as “A (A is defined as 0% ≤ substrate protein remaining % ≤ 80%)”.
On to `Cc1nc2c(F)cc(-c3nc(Nc4ccc(N5CCC(N6CCN(Cc7ccc(N8CCC(=O)NC8=O)cc7)CC6)CC5)cn4)ncc3F)cc2n1C(C)C` [GT-06739, 1-(4-((4-(1-(6-((5-fluoro-4-(4-fluoro-1-isopropyl-2-methyl-1H-benzo[d]imidazol-6-yl)pyrimidin-2-yl)amino)pyridin-3-yl)piperidin-4-yl)piperazin-1-yl)methyl)phenyl)dihydropyrimidine-2,4(1H,3H)-dione], for which the IC50 in the test with 22RV1 was in the range of 10 to 50 nM; in the test with CCRF-CEM it was 100 to 500 nM; with MM.1S it was 100 to 500 nM; in the test with MCF7, 50 to 100 nM; in the test on Kasumi-1 it was 50 to 100 nM; with H1975, 100 to 500 nM. Also, the IC50 is 50 to 100 nM in the test with SR and 10 to 50 nM in the test on MV-4-11. Further, the “Degradation of substrate protein CDK6 (substrate protein remaining %)” value on CDK6 is “B (B is defined as substrate protein remaining % > 80%)”. On CDK4, the “Degradation of substrate protein CDK4 (substrate protein remaining %)” value is “A (A is defined as 0% ≤ substrate protein remaining % ≤ 80%)”.
As to `Cc1nc2c(F)cc(-c3nc(Nc4ccc(N5CCC(N6CCN(Cc7cccc(N8CCC(=O)NC8=O)c7)CC6)CC5)cn4)ncc3F)cc2n1C(C)C` [GT-06740, 1-(3-((4-(1-(6-((5-fluoro-4-(4-fluoro-1-isopropyl-2-methyl-1H-benzo[d]imidazol-6-yl)pyrimidin-2-yl)amino)pyridin-3-yl)piperidin-4-yl)piperazin-1-yl)methyl)phenyl)dihydropyrimidine-2,4(1H,3H)-dione], the IC50 in the test with 22RV1 fell in the range of 10 to 50 nM; with CCRF-CEM, 100 to 500 nM; in the test on MM.1S, 100 to 500 nM; with MCF7, 50 to 100 nM; in the test on Kasumi-1, 50 to 100 nM; in the test with H1975, 100 to 500 nM. The IC50 in the test on SR and in the test with MV-4-11 was 10 to 50 nM in each case. In addition, the “Degradation of substrate protein CDK6 (substrate protein remaining %)” value on CDK6 is “B (B is defined as substrate protein remaining % > 80%)”. The “Degradation of substrate protein CDK4 (substrate protein remaining %)” value on CDK4 is on record as “A (A is defined as 0% ≤ substrate protein remaining % ≤ 80%)”.
